Experimental data from ChEMBL document CHEMBL2157925, “Design, synthesis, and bioevaluation of benzamides: novel acetylcholinesterase inhibitors with multi-functions on butylcholinesterase, Aβ aggregation, and β-secretase” (Bioorg Med Chem, 2012).

Key:
Acetylcholinesterase = Acetylcholinesterase (Homo sapiens, UniProt P22303)
Description: Inhibition of human recombinant AChE using acetylthiocholine as substrate

Cholinesterase = Cholinesterase (Homo sapiens, UniProt P06276)
Description: Inhibition of human recombinant BChE using acetylthiocholine as substrate

Beta-secretase 1 = Beta-secretase 1 (Homo sapiens, UniProt P56817)
Beta-secretase 1, sequence (P56817 whole entry): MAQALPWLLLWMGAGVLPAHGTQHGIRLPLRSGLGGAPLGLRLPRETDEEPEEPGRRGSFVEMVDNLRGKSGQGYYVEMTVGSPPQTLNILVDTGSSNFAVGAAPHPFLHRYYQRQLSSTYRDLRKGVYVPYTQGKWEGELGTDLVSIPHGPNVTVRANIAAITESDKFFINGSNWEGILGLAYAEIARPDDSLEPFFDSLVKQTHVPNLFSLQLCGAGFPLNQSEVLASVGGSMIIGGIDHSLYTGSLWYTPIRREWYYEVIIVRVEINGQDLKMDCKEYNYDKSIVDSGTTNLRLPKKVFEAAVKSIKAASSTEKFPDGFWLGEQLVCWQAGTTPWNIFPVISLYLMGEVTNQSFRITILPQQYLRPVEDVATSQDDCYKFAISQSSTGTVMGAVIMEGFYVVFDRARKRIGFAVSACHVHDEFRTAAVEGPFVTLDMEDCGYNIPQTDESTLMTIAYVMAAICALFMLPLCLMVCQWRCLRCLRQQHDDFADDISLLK

Cholinesterase, sequence (P06276 whole entry): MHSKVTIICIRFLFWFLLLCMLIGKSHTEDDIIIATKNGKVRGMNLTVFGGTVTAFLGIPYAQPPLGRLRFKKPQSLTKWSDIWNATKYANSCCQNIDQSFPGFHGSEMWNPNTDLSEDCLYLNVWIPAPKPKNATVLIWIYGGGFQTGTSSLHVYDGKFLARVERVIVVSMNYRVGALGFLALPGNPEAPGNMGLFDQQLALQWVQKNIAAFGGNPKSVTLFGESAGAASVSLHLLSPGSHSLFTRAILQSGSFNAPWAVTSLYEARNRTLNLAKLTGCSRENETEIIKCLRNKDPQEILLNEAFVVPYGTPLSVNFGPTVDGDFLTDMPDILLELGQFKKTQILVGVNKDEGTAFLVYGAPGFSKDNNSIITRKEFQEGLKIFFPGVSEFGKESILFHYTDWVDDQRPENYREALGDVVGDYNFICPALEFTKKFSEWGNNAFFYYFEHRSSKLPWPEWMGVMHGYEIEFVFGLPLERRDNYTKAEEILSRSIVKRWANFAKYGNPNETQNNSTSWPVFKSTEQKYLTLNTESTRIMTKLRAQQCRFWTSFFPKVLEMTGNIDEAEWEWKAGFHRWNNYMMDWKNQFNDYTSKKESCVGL
Acetylcholinesterase, sequence (P22303 whole entry): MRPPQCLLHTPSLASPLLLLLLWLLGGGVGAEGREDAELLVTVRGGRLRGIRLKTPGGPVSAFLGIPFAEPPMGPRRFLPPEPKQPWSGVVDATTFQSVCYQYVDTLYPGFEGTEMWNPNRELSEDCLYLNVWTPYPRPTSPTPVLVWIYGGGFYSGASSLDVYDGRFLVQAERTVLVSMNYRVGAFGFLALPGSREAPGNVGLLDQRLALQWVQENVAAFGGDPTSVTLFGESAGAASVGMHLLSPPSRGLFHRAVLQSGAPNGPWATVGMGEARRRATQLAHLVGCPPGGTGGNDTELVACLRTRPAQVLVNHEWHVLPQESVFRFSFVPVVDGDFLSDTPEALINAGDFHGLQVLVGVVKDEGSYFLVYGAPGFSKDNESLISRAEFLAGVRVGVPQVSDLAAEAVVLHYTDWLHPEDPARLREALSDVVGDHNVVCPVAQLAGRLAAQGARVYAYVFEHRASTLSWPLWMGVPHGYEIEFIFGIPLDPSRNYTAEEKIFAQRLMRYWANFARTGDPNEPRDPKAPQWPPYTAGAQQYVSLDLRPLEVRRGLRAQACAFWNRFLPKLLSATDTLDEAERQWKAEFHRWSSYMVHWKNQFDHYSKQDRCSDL

O=C(NCCc1c[nH]c2ccccc12)c1ccc(OCCCCOc2ccc(C(=O)c3ccccc3)cc2)cc1
Ki (Acetylcholinesterase): > 10000 nM

CC(=O)c1ccccc1NC(=O)c1ccc(OCCCC[n+]2cccc3ccccc32)cc1
Ki (Acetylcholinesterase): 53 nM | Ki (Cholinesterase): 166 nM

O=C(NCCc1c[nH]c2ccccc12)c1ccc(OCCCCOc2cccc3[nH]c4ccccc4c23)cc1
Ki (Acetylcholinesterase): > 10000 nM

CC(=O)c1ccccc1NC(=O)c1ccc(OCCCC[n+]2ccc3ccccc3c2)cc1
Ki (Acetylcholinesterase): 45.8 nM | Ki (Cholinesterase): 56 nM

CC(=O)c1ccccc1NC(=O)c1ccc(OCCCCCC[n+]2ccc3ccccc3c2)cc1
Ki (Acetylcholinesterase): 9.4 nM | Ki (Cholinesterase): 99 nM | IC50 (Beta-secretase 1): > 100000 nM

CC(=O)c1ccccc1NC(=O)c1ccc(OCCCCCC[n+]2ccccc2)cc1
Ki (Acetylcholinesterase): 47 nM | Ki (Cholinesterase): 66 nM

CC(=O)c1ccccc1NC(=O)c1ccc(OCCCCC[n+]2cccc3ccccc32)cc1
Ki (Acetylcholinesterase): 6.47 nM | Ki (Cholinesterase): 55 nM | IC50 (Beta-secretase 1): 85000 nM

O=C(NCCc1c[nH]c2ccccc12)c1ccc(OCCCCOc2cccc(C(=O)c3ccccc3)c2)cc1
Ki (Acetylcholinesterase): > 10000 nM

O=C(NCCc1c[nH]c2ccccc12)c1ccc(OCCCCn2ccc3ccccc32)cc1
Ki (Acetylcholinesterase): > 10000 nM

O=C(NCCc1c[nH]c2ccccc12)c1ccc(OCCCCOc2ccc3c(c2)C(=O)c2ccccc2-3)cc1
Ki (Acetylcholinesterase): > 10000 nM

CC(=O)c1ccccc1NC(=O)c1ccc(OCCCCC[n+]2ccccc2)cc1
Ki (Acetylcholinesterase): 81 nM | Ki (Cholinesterase): 93 nM | IC50 (Beta-secretase 1): 310 nM

O=C(NCCc1c[nH]c2ccccc12)c1ccc(OCCCCn2c3ccccc3c3ccccc32)cc1
Ki (Acetylcholinesterase): 1440 nM

CC(=O)c1ccccc1NC(=O)c1ccc(OCCCCC[n+]2ccc3ccccc3c2)cc1
Ki (Acetylcholinesterase): 44.7 nM | Ki (Cholinesterase): 82 nM | IC50 (Beta-secretase 1): > 100000 nM

CN(C)c1cc[n+](CCCCOc2ccc(C(=O)NCCc3c[nH]c4ccccc34)cc2)cc1
Ki (Acetylcholinesterase): 198 nM | Ki (Cholinesterase): 2360 nM

O=C(NCCc1c[nH]c2ccccc12)c1ccc(OCCCC[n+]2cccc3ccccc32)cc1
Ki (Acetylcholinesterase): 124 nM | Ki (Cholinesterase): 97 nM
